Data reported in ChEMBL document CHEMBL3046711, “Novel glitazones: glucose uptake and cytotoxic activities, and structureactivity relationships” (2012).
In brackets after ≈: the same amount, converted by molar mass.

Experiments:
Assay type in all cases: functional
[1] = test system: A549; test: Cytotoxicity against Homo sapiens (human) A549 cells after 3 days by SRB assay; conditions: A549, 72 h
[2] = test system: Hemi-diaphragm; test: Induction of glucose uptake in Rattus norvegicus Wistar (rat) hemi-diaphragm at 2 mg after 45 min by GOD/POD enzymatic method in presence of insulin
[3] = test system: Hemi-diaphragm; test: Induction of glucose uptake in Rattus norvegicus Wistar (rat) hemi-diaphragm at 2 mg after 45 min by GOD/POD enzymatic method

## O=C1NC(=O)/C(=C/c2ccc(OCCOc3ccccc3Cl)cc2)S1
[1]
  CC50: 100 µg/mL (≈ 266 µM)
[2]
  Activity: 22.5 mg/dL
[3]
  Activity: 6 mg/dL

## CN(CCOc1ccc(CC2SC(=O)NC2=O)cc1)c1ccccn1 (stereo not given) [ROSIGLITAZONE]
[2]
  Activity: 37 mg/dL
[3]
  Activity: 15.5 mg/dL
